From patent US11213507B2, “MRSA biofilm inhibition” (University of South Florida, priority 2016, dated 2022)
≈ marks a conversion by molar mass, not a printed value.

Experiments:
[1] = test system: MRSA biofilm (CBD-635); assay: In vitro MRSA biofilm assay; type: cell-based, Staphylococcus aureus
Description: (§1) Spongian diterpenes are well known as bioactive natural products. Darwinolide was screened for activity against a clinical strain of a highly resistant Staphylococcus aureus (MRSA). […] The remaining colony was subjected to a cell recovery experiment overnight after washout of darwinolide. […] Based on the 4-fold selectivity of darwinolide for MRSA biofilms over planktonic cells, and its low mammalian cytotoxicity, darwinolide presents a highly suitable scaffold for the development of urgently needed, novel anti-biofilm-specific antibiotics.
(§2) A clinical, multi-drug resistant strain of MRSA (CBD-635) was used in these studies for minimum inhibitory concentration (MIC) determination and assessment of anti-biofilm properties, all as described previously (Fleeman et al., J. Med. Chem. 2015, 58, 3340-3355).

[2] = Cytotoxicity assay (MTS, 72 h) in J774 macrophage cell line; type: cell-based; settings: mouse, J774.A-1 macrophage cell line
Description: as §1
The J774.A-1 cell line was used for cytotoxicity screening via a colorometric method employing a tetrazolium derivative [3-(4,5-dimethylthiazol-2-yl)-5-(3-carboxymethoxyphenyl)-2-(4-sulfophenyl)-2H-tetrazolium] (MTS) 72 h assay using 50000 […] per well, and an electron-coupling reagent, and penazine methosulphate (PMS) were used in the assay. IC50 values were calculated from sigmoidal inhibition curves using SigmaPlot 11.0 software (von Salm et al., J. Org. Lett. 2014, 16, 2630-2633).

[3] = test system: methicillin-resistant Staphylococcus aureus (MRSA) CBD-635; type: cell-based
Description: as §1, §2

[4] = test system: methicillin-resistant Staphylococcus aureus (MRSA) CBD-635; assay: Broth dilution MIC assay against clinical MRSA strain; type: cell-based
Description: as §1, §2

CC(=O)O[C@@H]1O[C@H]2OC(=O)C3=C(C)[C@@H]([C@@]4(C)CCCC(C)(C)C4)CC[C@@H]1[C@H]32 [darwinolide]
IC50 ([1]; Staphylococcus aureus, biofilm established in vitro with same MRSA strain, read-out: IC50 against the biofilm): 33.2 µM | selectivity for MRSA biofilms over planktonic cells ([1]; biofilm IC50 vs planktonic MIC): 4 fold | IC50 at 72 h [2]: 73.4 µM | cytotoxic or cytostatic toward S. aureus ([3]; conclusion from cell recovery experiment): cytotoxic, rather than cytostatic | treated bacterium able to recover and grow ([3]; overnight recovery after washout of darwinolide, colony remaining from MIC assay): 1.6% | MIC [4]: 133 µM (≈ 50 µg/mL)
